What all share (type): cell-based, pig
Test [1] relates to pgEpiSCs. The experiment in a line: qRT-PCR of marker gene mRNA in pgEpiSCs in modified 3i/LAF medium. The method, then: Total RNA from pgEpiSCs was extracted using the RNAprep Pure Cell/Bacteria Kit (TIANGEN, DP430), and then reverse transcribed to cDNA using 5×All-in-One RT Master Mix (Abm, G490). PCR was performed on a LightCycler480 II Real Time System (Roche) using 2×RealStar Green Power Mixture (GenStar, A311-05). The data were analyzed using the comparative CT (2^−ΔΔCT) method. ΔCT was calculated using EF1A as an internal control. All experiments were performed in three biological replicates. Primers used for quantitative real-time PCR are listed in the Resource table.
(§1) According to the 3i/LAF medium and its culture method described in Example 1, the inventors tested the requirement for each factor in the 3i/LAF medium for long-term in vitro maintenance of pgEpiSCs on the basis of removing the small molecule inhibitors and cytokines from the culture medium one by one without altering the other conditions.
Background: In qPCR the cycle at which signal appears reflects the starting amount.

In test [2] the test system is pgEpiSCs. As to the kind of experiment: Clone morphology and alkaline phosphatase (AP) staining of pgEpiSCs in modified 3i/LAF medium. As to conditions: for clone morphology and AP staining signal after removal of the factor: factor removed from 3i/LAF medium, other conditions unchanged, FIG. 2-1A. The method, then:
The alkaline phosphatase staining of pgEpiSC was based on the Alkaline Phosphatase Assay Kit (Millipore, SCR004). Specific experimental steps followed the instructions of the kit.
Epiblast from pig E8-E10 embryos was obtained, and the epiblast was treated with TrypLE™ Express followed by repeatedly blowing to disperse into small cell masses. The cell masses were then inoculated into 12-well cell culture dishes (density of the feeder layer cells were approximately 2×10^5 cells/well) supplemented with 750 μL of 3i/LAF medium (Note: 10 μM Y27632 was added into the 3i/LAF medium), wherein the feeder layer cells were mouse embryonic fibroblasts treated with mitomycin C (Selleckchem, S8146) and cultured in an incubator at 37° C., 100% humidity, and 5% CO2. After 12 hrs, another 750 μL of 3i/LAF medium was added without changing the medium, and after 24 hrs, the medium was replaced with fresh 3i/LAF medium (containing 2 μM Y27632). After that, the medium was replaced with fresh medium every 12 hrs, and after the clones grew for 2-3 days, the morphology of the clones was observed and the clones were digested for passaging.
as §1
Experimental method: pgEpiSCs were cultured with the adjusted medium, after which AP staining was performed on the cultured pgEpiSCs of P1 (indicating the pgEpiSCs after 1 passage in the adjusted medium) or P3 (indicating the pgEpiSCs after 3 passages in the adjusted medium). The specific steps of AP staining are described in the section of Experimental Methods described previously.

In test [3] the test system is phosphorylated STAT3. As to the kind of experiment: Western blot of phosphorylated STAT3 in pgEpiSCs. Particulars: with or without LIF; FIG. 2-1M. The method, then: Total proteins were extracted from cells by cell lysis buffer (Beyotime Biotechnology, P0013), and nuclear and cytoplasmic proteins were extracted using the nucleus and cytoplasmic protein extraction kit (Beyotime Biotechnology, P0027) supplemented with protease and phosphatase inhibitor cocktail (Beyotime Biotechnology, P1050) to extract nuclear and cytoplasmic proteins. The concentration of extracted proteins was measured using the Bradford Protein Assay Kit (Bio-red, 5000201). An equal amount of proteins (15 μg) was separated by SDS-PAGE gel electrophoresis, which were transferred from the gel to Immobilon-P transfer membrane (Merck Millipore; pore size: 0.45 μm; IPVH00010). The blots were blocked in 5% nonfat powdered milk (Sangon Biotech, A600669-0250) in TBST (20 mM Tris, pH 7.5; 150 mM NaCl; 0.1% Tween 20) at room temperature for 1 hour and then incubated with primary antibodies diluted in 5% nonfat powdered milk in TBST overnight at 4° C. The next day, the blots were rinsed three times with TBST for 5 minutes each time, then incubated together with HRP-coupled secondary antibody diluted in 5% nonfat powdered milk in TBST for 1 hour at room temperature. The blots were developed with SuperSignal West Dura Extended Duration Substrate (Thermo Fisher Scientific, 34075), and the intensity of the bands of the target proteins was analyzed using CLINX chemiluminescence software. […]

Test [4] has as its system pgEpiSCs. The experiment in a line: Cell proliferation, survival and passaging of pgEpiSCs. As to conditions: for proliferation and passaging of pgEpiSCs: FGF2 removed and ERK/MEK inhibitor PD0325901 added, FIG. 2-1I to 2-1K. The method, then:
pgEpiSCs were cultured in a 12-well plate. Cell samples were inoculated at a density of 2× 10^4 cells per well in triplicate. The number of cells was counted every 12 hours. For each time point, cells were digested and counted using a Luna™ Automated Cell Counter, and the results of three counts were averaged and plotted. The cell doubling time was calculated as follows: doubling time (DT)=24×[lg2/(lgNt−lgN0)], where 24 is the cell culture time (hour); Nt is the number of cells cultured for 48 hours; and No is the number of cells recorded at 24 hours.
as §1

In test [5] the test system is pgEpiSCs. As to the kind of experiment: Immunostaining of POU5F1 and EOMES in pgEpiSCs. Particulars: factor removed from 3i/LAF medium; FIG. 2-1C. The method, then:
Cells were washed with DPBS (Gibco, C14190500BT) and fixed with 4% paraformaldehyde for 30 min at room temperature, then washed with DPBS again, permeabilized in 0.1% Triton X-100 for 20 min and blocked with 3% BSA for 1 hour. Cells were incubated with primary antibody diluted with 3% BSA at 4° C. overnight. Cells were then washed three times for 3 min each with wash buffer (DPBS containing 0.1% Triton X-100 and 0.1% Tween 20). The secondary antibody was diluted, and incubated with wash buffer for 1 hour at room temperature, then washed three times for 5 min each with wash buffer, and then the nuclei were stained with DAPI (Roche Life Science, 10236276001) for 3 min.
as §1

Setting [6] is: high concentration of CHIR99021 in the medium, FIG. 2-1E, 2-1F, 2-2C, 2-2D.
The mark [7] stands for this setting: inhibitor added into the culture medium, FIG. 2-1H.
[8] abbreviates: only IWR-1-endo replaced with XAV939, FIG. 2-2A.
Where [9] appears, read: only IWR-1-endo replaced with XAV939, FIG. 2-2B.
The mark [10] stands for this setting: factor removed from 3i/LAF medium, FIG. 2-1B.

“Also recorded” adds a separate entry of the source.

`Cc1c[nH]c(-c2cnc(NCCNc3ccc(C#N)cn3)nc2-c2ccc(Cl)cc2Cl)n1` [CHIR99021]: in test [1] (factor removed from 3i/LAF medium, FIG. 2-1D), the “expression of cell proliferation-related genes (LIN28A, C-MYC, ETV4, ETV5) after removal of the factor” value was “down-regulated”. Moreover, in test [1] (setting [6]), the “expression of GATA6 at high concentration” value is given as “significant up-regulation; also recorded: up-regulated” and the “expression of pluripotency marker POU5F1 at high concentration” value is “down-regulation; also recorded: decreased”.

In the case of “LIF: cytokine of the 3i/LAF medium (PeproTech, 300-05)”, the “clone morphology and AP staining signal after removal of the factor” value in test [2] (2-1L) was “not necessary to maintain the morphology”. Also, the “detection of phosphorylated STAT3” value in test [3] is “could be detected only in the presence of LIF”.

In the case of `NC(=O)c1ccc(-c2nc(-c3ccc4c(c3)OCO4)c(-c3ccccn3)[nH]2)cc1` [SB431542], the “clone morphology after addition of the inhibitor” value in test [2] (inhibitor added into the culture medium, FIG. 2-1G, 2-1L) was “irregular clone morphology”. Besides, in test [1] (inhibitor added into the culture medium, FIG. 2-1G, 2-1H), the “level of NANOG after addition of the inhibitor” value is on record as “dramatic decrease”. Moreover, in test [1] (setting [7]), the “BMP4 and BMP downstream transcription factors (ID2, ID3) after addition of the inhibitor” value was “significant increase”; the “pluripotency markers (POU5F1, REX1) after addition of the inhibitor” value was “significant decrease”.

Consider `O=C(NOC[C@H](O)CO)c1ccc(F)c(F)c1Nc1ccc(I)cc1F` [PD0325901], for which the “proliferation and passaging of pgEpiSCs” value in test [4] was “could not proliferate or be passaged normally”.

In the case of `Oc1nc(-c2ccc(C(F)(F)F)cc2)nc2c1CSCC2` [XAV939], in test [2] (IWR-1-endo replacement with XAV939, FIG. 2-2A), the “passaging at which AP positivity was lost (figure legend)” value is on record as “around 8 passages of passaging”. Moreover, in test [2] (setting [8]), the “maintenance of pluripotency after IWR-1-endo replacement” value is given as “unable to maintain pluripotency for a long period of time” and the “passaging at which AP positivity was lost” value is recorded as “about 8 generations of passaging”. For the same compound, in test [1] (setting [9]), the “expression of core pluripotency factor OCT4 (POU5F1) after IWR-1-endo replacement” value was “down-regulated”; the “expression of pluripotency factors REX1, STELLA and ESRRB after IWR-1-endo replacement” value is “down-regulated”.

With “FGF2: fibroblast growth factor, cytokine of the 3i/LAF medium (Peprotech, 100-18B)”, the “proliferation and passaging of pgEpiSCs” value in test [4] was “could not proliferate or be passaged normally”. The “proliferative capacity of pgEpiSCs on decreasing the concentration” value in test [4] (decreasing FGF2 concentration, all other conditions unchanged, FIG. 2-1K) was “significantly reduced”. Besides, in test [4] (high concentrations of FGF2, FIG. 2-1K), the “cell proliferation at high concentrations” value is given as “faster cell proliferation”.

As for “Activin A: TGF-β superfamily member, cytokine of the 3i/LAF medium (Peprotech, 120-14E)”, the “level of pluripotency marker NANOG after removal of the factor” value in test [1] (factor removed from 3i/LAF medium, FIG. 2-1G, 2-1H) is given as “decrease”.

`COc1ccc(N(C(=O)Oc2c(C)cccc2C)c2ccnc(Nc3ccc(N4CCN(C)CC4)cc3)n2)c(OC)c1` [WH-4-023]: in test [1] (setting [10]), the “expression of gastrulation marker genes BMP2, BMP4, EOMES and T after removal of the factor” value is “up-regulation”. Further, in test [5], the “mesodermal and endodermal progenitor marker EOMES immunostaining after removal of the factor” value is listed as “promoting the expression”; the “pluripotency factor POU5F1 immunostaining after removal of the factor” value was “reduced accumulation or heterogeneity”.

Turning to `O=C(Nc1cccc2cccnc12)c1ccc(N2C(=O)[C@@H]3[C@H](C2=O)[C@@H]2C=C[C@H]3C2)cc1` [IWR-1-endo], in test [2] (2-1L), the “clone morphology and AP staining signal after removal of the factor” value is reported as “poorly defined boundaries of the pgEpiSC clone”. In test [1] (setting [10]), the “expression of core pluripotency factors (NANOG, POU5F1, SOX2, REX1) after removal of the factor” value is listed as “significant down-regulation”; the “expression of gastrulation marker genes BMP2, BMP4, EOMES and T after removal of the factor” value is “up-regulation”. Besides, in test [5], the “mesodermal and endodermal progenitor marker EOMES immunostaining after removal of the factor” value is reported as “promoting the expression”; the “pluripotency factor POU5F1 immunostaining after removal of the factor” value is recorded as “reduced accumulation or heterogeneity”.

Source of the values: patent US20240392240A1, “PIG EMBRYO-DERIVED PLURIPOTENT STEM CELLS AND USE THEREOF” (CHINA AGRICULTURAL UNIVERSITY, priority 2021, published 2024).
